Data published in PMC3395435 (Biopolymers, 2012).

Columns and labels:
[1] = assay type: physicochemical; settings: pH 7.5
Swiss Webster mice [2] = settings: mouse, in vivo
rat vas deferens = settings: cited from earlier work
Swiss Webster mice [3] = settings: mouse, in vivo; cited from earlier work

ω-conotoxin GVIA
natively folded peptide retained at the steady state [1]: about 60%
duration of shaking syndrome (Swiss Webster mice [2]): maintained for a long time
shaking syndrome (persistent body tremor) (Swiss Webster mice [2]): exhibited the shaking syndrome
Biological activity (twitch responses) (rat vas deferens): 10 nM
duration of shaking syndrome, previous work (Swiss Webster mice [3]): maintained for a long time in a dose-dependent manner
shaking syndrome, previous work (Swiss Webster mice [3]): induce shaking syndrome in mice
